In one assay the target is RIPK1 (Homo sapiens (Human), UniProt Q13546). The assay is described as follows: ADP-Glo Kinase Assay. As to conditions: 5 nM RIPK1 protein, 50 μM ATP, 6 hr reaction, average value across multiple runs. The class given is biochemical. The method, then:
In order to measure RIPK1 activity the ADP-Glo kinase assay (Promega, Catalog #V7002) was used to measure the conversion of ATP to ADP. This enzymatic assay was performed in a 384-well white, Optiplate (Perkin Elmer, Catalog #6007299) with assay buffer consisting of 50 mM HEPES pH 7.5 (Gibco, Catalog #15630-080), 50 mM NaCl (Teknova, Catalog #S0252), 30 mM MgCl2 (Ambion, Catalog #AM9530G), 1 mM DTT (Santa Cruz Biotechnology, Catalog #sc-29089), 0.05% BSA (Sigma, Catalog #A3059-50G) and 0.02% CHAPS (Sigma, Catalog #C5070-5G). Stock solutions of the test compounds were prepared in 100% DMSO (Sigma, Catalog #D2650) and serially diluted 1:3 using 100% DMSO. Compounds were additionally diluted 1:40 in assay buffer, and 2 μL/well were transferred to the assay plate. 4 μL/well (final concentration of 5 nM) of RIPK1 protein (SignalChem, Catalog #R07-11G-05) diluted in assay buffer and added to the assay plate followed by a 10 minute preincutation at room temperature. 4 μL/well of ATP (Promega, Catalog #V7002) (final concentration of 50 μM) diluted in assay buffer were then added to the assay plate followed by a 6 hr reaction time. Final concentrations of RIPK1 and ATP refer to a 10 μL volume. Luminescence was measured using a BioTek Synergy™ NEO plate reader. IC50 values were calculated using a four-parameter logistic curve fit using Genedata Screener software. Results are shown below in Table 4, where the average value across multiple runs is given.
(In general: ADP-Glo first removes unused ATP, then detects ADP through luciferase.)

In assay [1] the test system is human monocytic cell line U937. The assay is described as follows: Human U937 Cellular Necroptosis Assay. The class given is cell-based. The conditions noted are these: U-937; U937 cells stimulated with 25 ng/mL human TNFalpha and 25 μM z-VAD-FMK, 22 hr, viability by Cell Titer-Glo 2.0; average value across multiple runs; read-out: hU937 IC50. The method, then:
Human U937 Cellular Necroptosis Assay
The human monocytic cell line U937 (CRL-1593.2) was purchased from ATCC. The cells were routinely maintained in RPMI-1640 Medium (Gibco, Catalog #11875-093) supplemented with 10% heat inactivated fetal bovine serum (Gibco, Catalog #16140-071), 100 units/mL penicillin and 100 μg/mL streptomycin (Gibco, Catalog #15140-122), in a humidified incubator (37° C., 5% CO2). For the assay, cells were resuspended in RPMI-1640 phenol red free Media (Gibco, Catalog #11835-030) supplemented with 10% fetal bovine serum (Sigma, Catalog #F2442), 100 units/mL penicillin and 100 ug/mL streptomycin. Cells were stimulated with 25 ng/mL human TNFalpha (Cell Sciences, Catalog #CSI15659B) and 25 μM z-VAD-FMK (R&D Systems, Catalog #FMK001) followed by seeding 5000 cells per well in a volume of 40 μL to a white, CulturPlate-384 (Perkin Elmer, Catalog #6007680). Stock solutions of the test compounds were prepared in 100% DMSO (Sigma, Catalog #D2650) and serially diluted 1:3 using 100% DMSO. Compounds were additionally diluted 1:40 in assay medium, and 10 μL/well was transferred to the plate. Following the compound addition the plate was incubated at 37° C. and 5% CO2 for 22 hr. After 22 hr, viability was assessed with the addition of 20 μL of Cell Titer-Glo 2.0 (Promega, Catalog #G9243). The tissue culture plate was shaken on an orbital shaker at 300 RPM for 15 minutes at room temperature in the dark. Luminescence was measured using a PerkinElmer Envision™ plate reader. IC50 values were calculated using a four-parameter logistic curve fit using Genedata Screener software. Results are shown below in Table 5, where the average value across multiple runs is given.
For orientation: In ATP-based viability assays light output follows the ATP content of the culture.

pIC50: −log10 of the molar value.

Sequence of RIPK1 (Q13546 1-327): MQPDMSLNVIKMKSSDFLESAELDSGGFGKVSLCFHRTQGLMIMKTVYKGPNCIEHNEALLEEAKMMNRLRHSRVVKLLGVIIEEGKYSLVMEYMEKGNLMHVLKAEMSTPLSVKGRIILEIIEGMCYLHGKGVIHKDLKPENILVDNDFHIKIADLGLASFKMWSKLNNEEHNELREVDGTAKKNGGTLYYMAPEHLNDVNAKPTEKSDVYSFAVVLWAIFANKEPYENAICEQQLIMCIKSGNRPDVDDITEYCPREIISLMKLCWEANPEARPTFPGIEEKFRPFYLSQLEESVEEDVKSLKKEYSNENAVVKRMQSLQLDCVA

In general, pIC50 refers to the IC50 on a negative log10 scale, so that one unit is a factor of ten. Regarding `Cc1cc(=O)c(C(=O)NC2CCc3cc(F)cc(F)c3NC2=O)nn1-c1ccccc1` (centres unmarked) [Example 48, N-(7,9-difluoro-2-oxo-2,3,4,5-tetrahydro-1H-benzo[b]azepin-3-yl)-6-methyl-4-oxo-1-phenyl-1,4-dihydropyridazine-3-carboxamide], the values for the negative-log IC50 (pIC50) (at RIPK1; in assay [1]) were 7.29 and 7.15, respectively.
Turning to `Cc1cc(=O)c(C(=O)N[C@H]2COc3cc(C#N)ccc3N(C)C2=O)nn1-c1cccc(F)c1` [Example 61, (S)-N-(8-cyano-5-methyl-4-oxo-2,3,4,5-tetrahydrobenzo[b][1,4]oxazepin-3-yl)-1-(3-fluorophenyl)-6-methyl-4-oxo-1,4-dihydropyridazine-3-carboxamide], the figures for the negative-log IC50 (pIC50) (at RIPK1; in assay [1]) were 7.24 and 7.06, respectively.
Taken in the same sequence, the figures for `Cc1cc(=O)c(C(=O)Nc2c(Br)cccc2C(C)C)nn1-c1ccccc1` [Example 24, N-(2-bromo-6-isopropylphenyl)-6-methyl-4-oxo-1-phenyl-1,4-dihydropyridazine-3-carboxamide] were 6.31 and 5.58.
With `COc1ccc(-n2nc(C(=O)NC3CCc4ccccc4NC3=O)c(=O)cc2C)cc1` (centres unmarked) [Example 65, 1-(4-methoxyphenyl)-6-methyl-4-oxo-N-(2-oxo-2,3,4,5-tetrahydro-1H-benzo[b]azepin-3-yl)-1,4-dihydropyridazine-3-carboxamide], the pIC50 at RIPK1 is 7.32; in assay [1], 6.91.
For `Cc1cccc(C2CC2)c1NC(=O)c1nn(-c2ccccc2)c(C)cc1=O` [Example 26, N-(2-cyclopropyl-6-methylphenyl)-6-methyl-4-oxo-1-phenyl-1,4-dihydropyridazine-3-carboxamide] the same measures were 6.18 and 5.50.
Regarding `Cc1c(Cl)c(=O)c(C(=O)NC2CCc3cc(Cl)ccc3N(C)C2=O)nn1-c1ccccc1` (centres unmarked) [Example 45, 5-Chloro-N-(7-chloro-1-methyl-2-oxo-2,3,4,5-tetrahydro-1H-benzo[b]azepin-3-yl)-6-methyl-4-oxo-1-phenyl-1,4-dihydropyridazine-3-carboxamide], the negative-log IC50 (pIC50) at RIPK1 was 7.55; in assay [1], 7.14.
Taken in the same sequence, the figures for `Cc1c(C#N)c(=O)c(C(=O)NC2CCc3ccccc3N(C)C2=O)nn1-c1ccccc1` (centres unmarked) [Example 47, 5-Cyano-6-methyl-N-(1-methyl-2-oxo-2,3,4,5-tetrahydro-1H-benzo[b]azepin-3-yl)-4-oxo-1-phenyl-1,4-dihydropyridazine-3-carboxamide] were 7.14 and 7.07.
`Cc1cc(=O)c(C(=O)NC2CCc3ccccc3NC2=O)nn1-c1ccc(F)cc1` (centres unmarked) [Example 57, 1-(4-fluorophenyl)-6-methyl-4-oxo-N-(2-oxo-2,3,4,5-tetrahydro-1H-benzo[b]-azepin-3-yl)-1,4-dihydropyridazine-3-carboxamide]: the negative logarithm of the IC50 (pIC50) is 7.70 at RIPK1 and 7.39 in assay [1].
As for `Cc1cccc(-n2nc(C(=O)NC3CCc4ccccc4NC3=O)c(=O)cc2C)c1` (centres unmarked) [Example 64, 6-methyl-4-oxo-N-(2-oxo-2,3,4,5-tetrahydro-1H-benzo[b]azepin-3-yl)-1-(m-tolyl)-1,4-dihydropyridazine-3-carboxamide], the pIC50 was 7.37 on RIPK1 and 7.11 in assay [1].
As for `Cc1cc(=O)c(C(=O)NC2CCn3nccc3N(C)C2=O)nn1-c1ccccc1` (stereo not drawn) [Example 72, 6-methyl-N-(4-methyl-5-oxo-5,6,7,8-tetrahydro-4H-pyrazolo[1,5-a][1,3]diazepin-6-yl)-4-oxo-l-phenyl-1,4-dihydropyridazine-3-carboxamide], the pIC50 on RIPK1 was 7.04; in assay [1] it was 6.65.
Taken in the same sequence, the figures for `Cc1c(Cl)c(=O)c(C(=O)NC2CCc3cc(Cl)ccc3NC2=O)nn1-c1ccccc1` (centres unmarked) [Example 40, 5-Chloro-N-(7-chloro-2-oxo-2,3,4,5-tetrahydro-1H-benzo[b]azepin-3-yl)-6-methyl-4-oxo-1-phenyl-1,4-dihydropyridazine-3-carboxamide] were 7.44 and 7.33.
With `CCN1C(=O)[C@@H](NC(=O)c2nn(-c3ccccc3)c(C)cc2=O)COc2cccnc21` [Example 76, (S)-N-(5-ethyl-4-oxo-2,3,4,5-tetrahydro-pyrido[3,2-b][1,4]oxazepin-3-yl)-6-methyl-4-oxo-1-phenyl-1,4-dihydro-pyridazine-3-carboxamide], the pIC50 in assay [1] is 5.25.
On the same count and under the same terms, the figure for `Cc1cc(=O)c(C(=O)NC2CCc3ccccc3NC2=O)nn1-c1cncc(F)c1` (centres unmarked) [Example 79, 1-(5-fluoropyridin-3-yl)-6-methyl-4-oxo-N-(2-oxo-2,3,4,5-tetrahydro-1H-benzo[b]azepin-3-yl)-1,4-dihydropyridazine-3-carboxamide] is 6.29.
Still for that read-out and setting: the figure for `Cc1ccc(-n2nc(C(=O)N[C@H]3COc4cccnc4N(C)C3=O)c(=O)cc2C)cc1F` [Example 75, (S)-1-(3-fluoro-4-methylphenyl)-6-methyl-N-(5-methyl-4-oxo-2,3,4,5-tetrahydro-pyrido[3,2-b][1,4]oxazepin-3-yl)-4-oxo-1,4-dihydropyridazine-3-carboxamide] is 7.55.
In the case of `Cc1ccc(-n2nc(C(=O)N[C@H]3COc4cccnc4N(C)C3=O)c(=O)cc2C)cc1` [Example 77, (S)-6-methyl-N-(5-methyl-4-oxo-2,3,4,5-tetrahydropyrido[3,2-b][1,4]oxazepin-3-yl)-4-oxo-1-(p-tolyl)-1,4-dihydro-pyridazine-3-carboxamide], the negative-log IC50 (pIC50) in assay [1] is 7.58.
Take `COc1cc2c(cn1)N(C)C(=O)C(NC(=O)c1nn(-c3ccccc3)c(C)cc1=O)CC2` (centres unmarked) [Example 81, N-(7-methoxy-1-methyl-2-oxo-2,3,4,5-tetrahydro-1H-pyrido[3,4-b]azepin-3-yl)-6-methyl-4-oxo-1-phenyl-1,4-dihydropyridazine-3-carboxamide]: in assay [1], the pIC50 was 6.10.
On the same count and under the same terms, in the case of `Cc1cc(=O)c(C(=O)NC2CCc3ccccc3-n3ccnc32)nn1-c1ccccc1` (centres unmarked) [Example 73, N-(5,6-dihydro-4H-benzo[f]imidazo[1,2-a]azepin-4-yl)-6-methyl-4-oxo-1-phenyl-1,4-dihydropyridazine-3-carboxamide] it was 6.53.
`Cc1cc(=O)c(C(=O)N[C@H]2COc3cccnc3NC2=O)nn1-c1ccccc1` [Example 63, (S)-6-methyl-4-oxo-N-(4-oxo-2,3,4,5-tetrahydropyrido[3,2-b][1,4]oxazepin-3-yl)-1-phenyl-1,4-dihydropyridazine-3-carboxamide]: in assay [1], the negative logarithm of the IC50 (pIC50) was 6.32.
Consider `Cc1c(Cl)c(=O)c(C(=O)N[C@H]2COc3cccnc3N(C)C2=O)nn1-c1ccccc1` [Example 74, (S)-5-chloro-6-methyl-N-(5-methyl-4-oxo-2,3,4,5-tetrahydropyrido[3,2-b]-[1,4]oxazepin-3-yl)-4-oxo-1-phenyl-1,4-dihydropyridazine-3-carboxamide], for which the pIC50 in assay [1] was 7.24.
On to `Cc1cc(=O)c(C(=O)N[C@@H]2C(=O)Nc3ncccc3O[C@@H]2C)nn1-c1ccccc1` [Example 80, 6-methyl-N-((2R,3S)-2-methyl-4-oxo-2,3,4,5-tetrahydropyrido[3,2-b]-[1,4]oxazepin-3-yl)-4-oxo-1-phenyl-1,4-dihydropyridazine-3-carboxamide], for which the negative-log IC50 (pIC50) in assay [1] was 5.43.
Same read-out and setting: the figure for `Cc1cc(=O)c(C(=O)N[C@@H]2C(=O)N(C)c3ncccc3O[C@@H]2C)nn1-c1ccccc1` [Example 78, N-((2R,3S)-2,5-dimethyl-4-oxo-2,3,4,5-tetrahydropyrido[3,2-b]-[1,4]oxazepin-3-yl)-6-methyl-4-oxo-1-phenyl-1,4-dihydropyridazine-3-carboxamide] is 6.82.

The values are drawn from patent publication US11690850B2, “Inhibitors of receptor interacting protein kinase I for the treatment of disease” (Board of Regents, The University of Texas System, priority 2019, dated 2023).
